# Tests used:
# BRD4(BD1+BD2) protein = target: T1, BRD4(BD1+BD2) protein (Homo sapiens, UniProt O60885); assay: BRD4 binding inhibition assay (TR-FRET); conditions: BRD4(BD1+BD2) TR-FRET Assay Kit, reaction 2 hours at room temperature; read-out: IC50 (concentration necessary for 50% inhibition of BRD4 binding activity)
# T1 construct: 5 μL of BRD4(BD1+BD2) protein solution prepared to 3.6 ng/μL; purchased BPS Bioscience Inc. 32612
# Procedure: This assay measures binding inhibition activity of the test substance on the bromodomain of BRD4 protein.
# BRD4 binding inhibition activity assay was carried out using a BRD4(BD1+BD2)TR-FRET Assay Kit (BPS Bioscience Inc. Catalog #32612), according to the attached instructions. In a flat-bottom 384-well white plate (Greiner 781080) there was added 8 μL of Tb-labeled donor/dye-labeled acceptor solution diluted 160-fold with 1×BRD TR-FRET Assay Buffer1, with 5 μL of BET Bromodomain Ligand diluted 40-fold with 1×BRD TR-FRET Assay Buffer1 in the test substance measuring wells and the Positive Control wells, and 5 μL of Non-acetylated Ligand1 diluted 40-fold with 1×BRD TR-FRET Assay Buffer1 in the Negative Control wells. After adding 2 μL of test substance diluted with 1×BRD TR-FRET Assay Buffer1 to the test substance measuring wells, and 2 μL of Dimethyl Sulfoxide solution diluted 100-fold with 1×BRD TR-FRET Assay Buffer1 to the Positive Control wells and Negative Control wells, 5 μL of BRD4(BD1+BD2) protein solution prepared to 3.6 ng/μL with 1×BRD TR-FRET Assay Buffer1 was added and reaction was conducted for 2 hours at room temperature. The fluorescence intensity was measured at 620 nm and 665 nm with irradiation of 340 nm excitation light into each well, using an Envision™ (Perkin-Elmer). The ratio of fluorescence intensity at […] with respect to fluorescence intensity at 620 nm for each well was recorded as the TR-FRET ratio, and the TR-FRET ratio in the presence of the test substance was calculated with the Positive Control well value as 100%, subtracting the Negative Control well value. The concentration of test substance necessary for 50% inhibition of BRD4 binding activity (IC50) was calculated from the TR-FRET ratio, and shown in Table 1.
# AsPC-1/Cas9 cell line = assay: AsPC-1/Cas9 growth inhibition assay; type: cell-based, human; conditions: Homo sapiens, ASPC1, 120 h, AsPC-1/Cas9 cells, 5 days culture, CellTiter Glo 2.0; read-out: Absolute IC50—Day 5 (nM) AsPC-1 Cas9
# Procedure: The human pancreatic cancer cell line AsPC-1 (ATCC Number CRL1682) was infected with Edit-R Lentiviral hCMV-Blast-Cas9 Nuclease Particle (Dharmacon, VCAS10124) in the presence of 8 μg/ml of Hexadimethrine bromide (Sigma, H9268), and after 24 hours it was exposed to 10 μg/ml of Blastcidin S (Thermo, A11139) to remove the uninfected cells, thereby establishing an AsPC-1/Cas9 cell line. The cells were maintenance cultured in a 5% CO2 incubator (37° C.) using RPMI-1640 (FujiFilm-Wako Pure Chemical Industries) containing 10% fetal bovine serum (FBS: SIGMA 173012) and penicillin/streptomycin (FujiFilm-Wako Pure Chemical Industries) (hereunder referred to simply as “culture medium”). After adding 45 μL of AsPC-1/Cas9 cell suspension prepared to 2.0×10^4 cells/mL using culture medium into each well of a 384-well plate (Greiner 781091), the cells were cultured overnight in a 5% CO2 incubator (37° C.). On the following day, 5 μL of the test substance diluted with culture medium was added to each well, and culturing was continued for 5 days in a 5% CO2 incubator (37° C.). Next, 25 μL of CellTiter Glo™ 2.0 (Promega) was added to each well, and the plate contents were mixed for 5 minutes using a plate mixer. The plate was stationed for 10 minutes at room temperature while shielded from light, and then the luminous intensity was measured with an ENVISION™ (Perkin-Elmer). The luminescence value of the wells with addition of test substance was determined as a relative value, with 100% as the luminescence value of the wells with cells but without addition of the test substance, and 0% as the luminescence value of the wells without cells. A plot of test substance concentration against luminescence value % approximated a 4-parameter logistic curve, and the test substance concentration necessary for 50% inhibition of cell growth (Absolute IC50) was calculated, and is shown in Table 4.
# [1] = target: HiBiT tagged BRD4-BD1 protein in HEK293/LgBiT/hPGK/HiBiT-BRD4-BD1 cells (Homo sapiens, UniProt O60885); assay: BET BD1 domain degradation assay; type: cell-based; set-up: HiBit-linker-BRD4 BD1(1-209); host or cells: HEK293 (ATCC CRL-1573) stably transduced with LgBiT and HiBiT-BRD4-BD1; conditions: concentration for 50% reduction in HiBiT-BRD4-BD1 protein level, 3 hours, read-out: Absolute DC50—3 h (nM) HEK293_HiBiT-BRD4-BD1
# Description: HEK293/LgBiT/hPGK/HiBiT-BRD4-BD1 cells were established by introducing LgBiT and HiBiT-BRD4-BD1 into the human fetus renal cell line HEK293 (ATCC Number CRL-1573). LgBiT was introduced using lentivirus vector LV[Exp]-Bsd-EFS>{LgBiT}, and HiBiT-BRD4-BD1 was introduced with lentivirus vector LV[Exp]-Puro-hPGK>{HiBit-linker-BRD4 BD1(1-209)}. The vector plasmids LV[Exp]-Bsd-EFS>{LgBiT} and LV[Exp]-Puro-hPGK>{HiBit-linker-BRD4_BD1(1-209)} were constructed by VectorBuilder Co. The lentivirus was produced using a Mission Lentivirus Packaging Mix (Sigma) according to the manufacturer's protocol. Viral infection and drug selection of infected cells were carried out by the following published method (Akagi T. et. al, PNAS 2003; 100:13567-72). The cells were maintenance cultured in a 5% CO2 incubator (37° C.), using culture medium. A 45 μL portion of cell suspension of HEK293/LgBiT/hPGK/HiBiT-BRD4-BD1 cells prepared to 6.7×10^4 cells/mL using culture medium was added to each well of a collagen I-coated 384-well plate (Falcon 356667), and the cells were cultured overnight in a 5% CO2 incubator (37° C.). On the following day, 5 μL of test substance diluted with RPMI-1640 (FujiFilm-Wako Pure Chemical Industries) containing 10% fetal bovine serum (FBS: SIGMA 173012) and penicillin/streptomycin (FujiFilm-Wako Pure Chemical Industries) was added to each well, and culturing was continued for 3 hours in a 5% CO2 incubator (37° C.). The luminous intensity was measured using a Nono-Glo HiBiT Lytic Detection System (Promega), and the intracellular HiBiT tagged BRD4-BD1 protein level was calculated. After culturing, 25 μL of measuring reagent was added to each well and the plate contents were mixed for 5 minutes using a plate mixer. The plate was stationed for 10 minutes at room temperature while shielded from light, and then the luminous intensity was measured with an ENVISION′ (Perkin-Elmer). The luminescence value of the wells with addition of test substance was determined as a relative value, with 100% as the luminescence value of the wells with cells but without addition of the test substance, and 0% as the luminescence value of the wells without cells. A plot of test substance concentration against luminescence value % approximated a 4-parameter logistic curve, and the test substance concentration necessary for 50% reduction in protein level (Absolute DC50) was calculated and is shown in Table 4.
SMILES,IC50 (BRD4(BD1+BD2) protein) [nM],IC50 (AsPC-1/Cas9 cell line) [nM],DC50 [1] [nM]
"Cc1cc(-c2ccc3nc(N)nc(C(CO)(OC4CC4)c4ccccc4)c3c2)cn(C)c1=O (centres unmarked) [Example 2, 5-(2-Amino-4-(1-cyclopropoxy-2-hydroxy-1-phenylethyl)quinazolin-6-yl)-1,3-dimethylpyridin-2(1H)-one]",26,,
"COc1ccc(C(=O)NC2(C)CCN(C3CCN(c4nc(C(CO)(CC(C)C)c5cccs5)c5cc(-c6cn(C)c(=O)c7[nH]ccc67)ccc5n4)CC3)CC2)cc1N1CCC(=O)NC1=O (centres unmarked) [Example 125, 3-(2,4-Dioxotetrahydropyrimidine-1(2H)-yl)-N-(1′-(4-(1-hydroxy-4-methyl-2-(thiophen-2-yl)pentan-2-yl)-6-(6-methyl-7-oxo-6,7-dihydro-1H-pyrrolo[2,3-c]pyridin-4-yl)quinazolin-2-yl)-4-methyl-[1,4′-bipiperidin]-4-yl)-4-methoxybenzamide]",,0.2,0.19
"CCCC(CO)(CCC)c1nc(N2CCC(OC3CCN(C(=O)c4ccc(OC)c(N5CCC(=O)NC5=O)c4)CC3)CC2)nc2ccc(-c3cn(C)c(=O)cc3OC)cc12 [Example 126, 1-(5-(4-((1-(4-(4-(Hydroxymethyl)heptan-4-yl)-6-(4-methoxy-1-methyl-6-oxo-1,6-dihydropyridin-3-yl)quinazolin-2-yl)piperidin-4-yl)oxy)piperidine-1-carbonyl)-2-methoxyphenyl)dihydropyrimidine-2,4(1H,3H)-dione]",,0.084,0.05
"Cc1ccc(C(=O)N2C[C@H](C)N(C3CCN(c4nc(C(CO)(OC5CC5)c5cccc(O)c5)c5cc(-c6cn(C)c(=O)c7[nH]ccc67)ccc5n4)CC3)C[C@H]2C)cc1N1CCC(=O)NC1=O (stereo partly drawn) [Example 127, 1-(5-((2R,5S)-4-(1-(4-(1-Cyclopropoxy-2-hydroxy-1-(3-hydroxyphenyl)ethyl)-6-(6-methyl-7-oxo-6,7-dihydro-1H-pyrrolo[2,3-c]pyridin-4-yl)quinazolin-2-yl)piperidin-4-yl)-2,5-dimethylpiperazine-1-carbonyl)-2-methylphenyl)dihydropyrimidine-2,4-(1H,3H)-dione]",,0.17,0.6
"COc1ccc(C(=O)NC2(C)CCN(C3CCN(c4nc(C(CO)(OC5CC5)c5cccc6ccccc56)c5cc(-c6cn(C)c(=O)c7[nH]ccc67)ccc5n4)CC3)CC2)cc1N1CCC(=O)NC1=O (centres unmarked) [Example 128, N-(1′-(4-(1-Cyclopropoxy-2-hydroxy-1-(naphthalen-1-yl)ethyl)-6-(6-methyl-7-oxo-6,7-dihydro-1H-pyrrolo[2,3-c]pyridin-4-yl)quinazolin-2-yl)-4-methyl-[1,4′-bipiperidin]-4-yl)-3-(2,4-dioxotetrahydropyrimidine-1(2H)-yl)-4-methoxybenzamide]",,0.32,0.25
"COc1ccc(-n2cc(CN3CCN(CC4CCN(c5nc(C(CO)(OC6CC6)c6ccccc6)c6cc(-c7cc(C)c(=O)n(C)c7)ccc6n5)CC4)CC3)nn2)cc1N1CCC(=O)NC1=O (centres unmarked) [Example 130, 1-(5-(4-((4-((1-(4-(1-Cyclopropoxy-2-hydroxy-1-phenylethyl)-6-(1,5-dimethyl-6-oxo-1,6-dihydropyridin-3-yl)quinazolin-2-yl)piperidin-4-yl)methyl)piperazin-1-yl)methyl)-1H-1,2,3-triazol-1-yl)-2-methoxyphenyl)-dihydropyrimidine-2,4(1H,3H)-dione]",,0.98,0.19
COc1ccc(C#CCNC2(C)CCN(C3CCN(c4nc([C@@](COCNC(=O)[C@H](CC(N)=O)NC(C)=O)(OC5CC5)c5ccccc5)c5cc(-c6cn(C)c(=O)c7[nH]ccc67)ccc5n4)CC3)CC2)cc1N1CCC(=O)NC1=O [Example 131],,4.5,11
"COc1ccc(C#CCNC2(C)CCN(C3CCN(c4nc([C@@](CO)(OC5CC5)c5ccccc5)c5cc(-c6cn(C)c(=O)c7[nH]ccc67)ccc5n4)CC3)CC2)cc1N1CCC(=O)N(CNC(=O)[C@H](CC(=O)O)NC(C)=O)C1=O [Example 138, (S)-3-Acetamide-4-(((3-(5-(3-((1′-(4-((S)-1-cyclopropoxy-2-hydroxy-1-phenylethyl)-6-(6-methyl-7-oxo-6,7-dihydro-1H-pyrrolo[2,3-c]pyridin-4-yl)quinazolin-2-yl)-4-methyl-[1,4′-bipiperidin]-4-yl)amino)prop-1-yn-1-yl)-2-methoxyphenyl)-2,6-dioxotetrahydropyrimidine-1(2H)-yl)methyl)amino)-4-oxobutanoic acid]",,41,> 100
"COc1ccc(C#CCNC2(C)CCN(C3CCN(c4nc(C(CO)(OC5CC5)c5ccccc5)c5cc(-c6cn(C)c(=O)c7[nH]ccc67)ccc5n4)CC3)CC2)cc1N1CCC(=O)NC1=O (centres unmarked) [Example 144, 1-(5-(3-((1′-(4-(1-Cyclopropoxy-2-hydroxy-1-phenylethyl)-6-(6-methyl-7-oxo-6,7-dihydro-1H-pyrrolo[2,3-c]pyridin-4-yl)quinazolin-2-yl)-4-methyl-[1,4′-bipiperidin]-4-yl)amino)prop-1-yn-1-yl)-2-methoxyphenyl)dihydropyrimidine-2,4(1H,3H)-dione]",,0.13,0.11
